# According to publication PMC11085682, “Identification of Novel Peptides in Distillers’ Grains as Antioxidants, α-Glucosidase Inhibitors, and Insulin Sensitizers: In Silico and In Vitro Evaluation” (Nutrients, 2024):
# Like-named read-outs stand apart in the source and are kept apart here. Where a SMILES comes first, the peptide text is derived from it. Where no end group is shown, it is not given here.
# Legend:
# [1] = set-up: method as in doi:10.1016/j.jff.2016.08.021; conditions: at different concentrations (5–150 mg/mL); cited from earlier work
# α-glucosidase [2] = conditions: cited from earlier work; for α-glucosidase activity inhibition: peptides from Spanish dry-cured ham
# Text: Since these peptides have small molecular weights, they are more likely to be absorbed intact by the gastrointestinal tract after oral ingestion, thereby exerting systemic or local effects. Consequently, the study of bioactive peptides has progressively emerged as a prominent research area in recent years. Numerous studies have dem ... || α-glucosidase is a membrane-associated enzyme. Inhibition of α-glucosidase activity can reduce carbohydrate hydrolysis, thus reducing sugar absorption and effectively controlling diabetes.. […] In the study on rice wine peptides, the α-glucosidase inhi ... || Due to the fact that α-glucosidase is a more important and directly regulated target in the treatment of diabetes, the potential inhibitory activity of α-glucosidase was used as the main condition of inquiry for further analysis. […] Therefore, this peptide was selected as a positive control to facilitate the analysis of the current study, and its affinity grading after molecular docking with α-glucosidase was −9.1 kcal/mol. Four peptides, YPLPR, AFEPLR, NDPF, and WN ... || (+ 1 further places)
# HepG2 cells [3] = conditions: cited from earlier work; for Glucose consumption in HepG2 cells compared to the model group: walnut-derived peptides; for Insulin resistance in HepG2 cells exposed to high glucose: from goat milk casein hydrolysate
# Text: In this study, the effect of YPLPR, AFEPLR, and NDPF on the glucose consumption of HepG2 cells in an insulin resistance state was investigated. […] The glucose consumption of peptides YPLPR, AFEPLR, and NDPF were 9.56 (9.37, 9.83), 10.56 ...
# HepG2 cells [4] = assay: H2O2 effect on cell viability (cell damage model); assay type: cell-based, human; conditions: H2O2 1.2 mmol/L; median (25%, 75% quartiles), n = 4
# Text: Excessive ROS may attack normal cells or biological macromolecules and undergo oxidative stress, causing severe damage to cellular structures, which causes many diabetic complications and chronic diseases. Accordingly, in this study, the scavenging activities of ABTS and DPPH radicals of bioactive peptides were not only investigated by in vitro experiments, but their antioxidant activity was also further investigated at the cellular level. The cell damage rate of the H2O2-induced cell damage model was generally around 50%. […] When the concentration of H2O2 was 1.2 mmol/L, the cell viability rate was 56.38 (50.33, 68.00) %, so the concentration of H2O2 of 1.2 mmol/L established the cell damage model in this study. […] Consistent with 3.6, YPLPR, AFEPLR, and NDPF were used at 1.0 mmol/L for subsequent experiments.
# HepG2 cells [5] = assay: MTT cytotoxicity of samples and insulin in HepG2 cells
# Text: (§1) The MTT method was adopted to assess the impact of samples and insulin on cell viability, helping determine the optimal concentrations of insulin and the samples. The experimental protocol for improving insulin resistance followed previous methods. Details are provided in the Supplementary Materials. In this experiment, various groups were established, incorporating the blank control group (K), model group (M), peptide sample groups, and the positive control group (treated with rosiglitazone).
# (§2) […] of the main pathogenic mechanisms of type 2 diabetes mellitus, and the liver is an important site for insulin to function. […] As the cellular insulin resistance condition arises, the utilization of glucose by the cells decreases, and the consumption of glucose decreases. Therefore, insulin resistance is usually expressed by the consumption of glucose in studies. Using the MTT method, this study explored the effect of different concentrations of insulin on cellular glucose consumption after 24 h of action with HepG2 cells.
# α-glucosidase [6] = biological target: α-glucosidase (Saccharomyces cerevisiae, UniProt P53341); assay: α-glucosidase inhibitory effect (pNPG); assay type: biochemical; conditions: synthetic peptides; PBS pH 6.8, 37 °C, 15 min pre-incubation, 30 min with pNPG, absorbance 405 nm; median (25%, 75% quartiles), at least three experiments; read-out: IC50, α-glucosidase inhibition
# Procedure: Distillers’ grains were generously supplied by the Suzhou Bridge Wine & Spirits Co. (Suzhou, China). Peptides YPLPR, AFEPLR, and NDPF (purity ≥ 98%) were composed by All Peptide Biotechnology Co., Ltd. (Hangzhou, China). Dulbecco’s Modified Eagle Medium (DMEM) medium, embracing 10.0% fetal bovine serum (FBS) and 1.0 mol/L phosphate buffer (PBS) was bought from Gibco (Life Technologies, Inc., Carlsbad, CA, USA). Alkaline protease (2.4 U/g), penicillin-streptomycin (100.0 U/mL penicillin-100.0 […] streptomycin), 3-(4,5-dimethylthiazol-2)-2,5-diphenyltetrazolium bromide (MTT) powder, 2′,7′-dichlorofluorescence yellow diacetate (DCFH-DA), and trypsin solution were purchased from Solarbio (Beijing Solarbio Science and Technology Co., Ltd., Beijing, China). The HepG2 cell line was acquired from the Kunming Institute of Animal Science, Chinese Academy of Sciences (Kunming, China). Rosiglitazone, insulin, ABTS, DPPH, α-glucosidase derived from Saccharomyces cerevisiae (type I, protein content of at least 30.0 units per milligram), and p-nitrobenzene α-D-glucopyranoside (pNPG, with a minimum purity of 99.0%) were purchased from Sigma-Aldrich (located in Shanghai, China). The glucose kit was purchased from Nanjing Jiancheng Co. (Nanjinng, China). […]
# The inhibitory effect on α-glucosidase activity of the protein hydrolysates from distillers’ grains or three selected peptides was assessed following the methodology outlined by Zhang et al. (2018) with slight modifications, and the concrete method is shown in the Supplementary Materials. […]
# The inhibitory effect on α-glucosidase activity of the protein hydrolysates from distillersʹ grains or three selected peptides was assessed following the methodology outlined by Zhang et al. (2018) with slight modifications. […]
# The absorbance of the resulting reaction mixture was measured at a wavelength […]
# of 405 nm using an enzyme-labeled instrument. […] In this formula, ʺAʺ represents the absorbance value. […]
# The antioxidant properties of vinasse hydrolysates or three screening peptides were evaluated by DPPH and ABTS free radical scavenging […]
# HepG2 cells [7] = assay: H2O2-induced intracellular ROS scavenging in HepG2 cells (DCFH-DA, flow cytometry); assay type: cell-based, human; conditions: VC 10.0 µmol/L 24 h, then 1.2 mmol/L H2O2 seven hours, median (25%, 75% quartiles), n = 4, model M 139.46 %, blank K 101 %
# Procedure: According to Liu et al. (2020), the H2O2-induced scavenging activity of reactive oxygen species was evaluated. In this experiment, various groups were established, including the blank, sample, positive control, and model groups. Refer to the Supplementary Materials for specific information. […]
# and NDPF concentrations were 1.0 mmol/L, and the positive control rosiglitazone concentration was 20.0 µmol/L. At the end of the incubation, the glucose content in the culture medium was measured using the glucose oxidase-peroxidase method kit by Nanjing Jiancheng Biological Co., Ltd., and the glucose content was calibrated by measuring the cell activity using the MTT […]
# 7. Evaluation of scavenging capacity against intracellular ROS
# HepG2 cells (2.0 mL/well, 1×10^4 cells/well) were inoculated in 6-well plate and cultured overnight. VC (10.0 µmol/L) or peptides YPLPR, AFEPLR, and NDPF (1.0 mmol/L) were added to each well, and the cells were incubated for an additional 24 hours. Following the incubation, the culture medium was aspirated, and the cells were washed thoroughly with PBS twice. Subsequently, cells in all experimental groups, except for the control group, were exposed to 1.2 mmol/L H2O2 for seven hours. […] After incubation, the cells were rinsed twice with culture medium devoid of FBS and analyzed using a Millipore flow cytometer (Guava easy Cyte 6-2L, Billerica, MA) within 30 minutes.
# [8] = previously screened from rice wine peptides; no reference number printed in the sentence; read-out: IC50, ABTS radical scavenging capacity; cited from earlier work
# [9] = previously screened from rice wine peptides; no reference number printed in the sentence; read-out: IC50, DPPH radical scavenging capacity; cited from earlier work
# HepG2 cells [10] = assay: Glucose consumption of insulin-resistant HepG2 cells; assay type: cell-based, human; conditions: 20.0 µmol/L positive control, 24 h, after 25.0 µmol/L insulin 24 h; median (25%, 75% quartiles), n = 6; model group M 6.08 (5.80, 6.81) mmol/L
# Text: as §1, §2
# HepG2 cells [11] = assay: Effect of insulin concentration on glucose consumption of HepG2 cells; assay type: cell-based, human; conditions: insulin 25.0 µmol/L, 24 h
# Text: Details are provided in the Supplementary Materials.
# [12] = peptides from rice wine, read-out: IC50, α-glucosidase depressant activity
# [13] = peptides from malt, read-out: IC50, α-glucosidase inhibitory activity
# [14] = at 1.0 mmol/mL (so in the source)
# Sequence of α-glucosidase (Saccharomyces cerevisiae, UniProt P53341) (P53341 whole entry): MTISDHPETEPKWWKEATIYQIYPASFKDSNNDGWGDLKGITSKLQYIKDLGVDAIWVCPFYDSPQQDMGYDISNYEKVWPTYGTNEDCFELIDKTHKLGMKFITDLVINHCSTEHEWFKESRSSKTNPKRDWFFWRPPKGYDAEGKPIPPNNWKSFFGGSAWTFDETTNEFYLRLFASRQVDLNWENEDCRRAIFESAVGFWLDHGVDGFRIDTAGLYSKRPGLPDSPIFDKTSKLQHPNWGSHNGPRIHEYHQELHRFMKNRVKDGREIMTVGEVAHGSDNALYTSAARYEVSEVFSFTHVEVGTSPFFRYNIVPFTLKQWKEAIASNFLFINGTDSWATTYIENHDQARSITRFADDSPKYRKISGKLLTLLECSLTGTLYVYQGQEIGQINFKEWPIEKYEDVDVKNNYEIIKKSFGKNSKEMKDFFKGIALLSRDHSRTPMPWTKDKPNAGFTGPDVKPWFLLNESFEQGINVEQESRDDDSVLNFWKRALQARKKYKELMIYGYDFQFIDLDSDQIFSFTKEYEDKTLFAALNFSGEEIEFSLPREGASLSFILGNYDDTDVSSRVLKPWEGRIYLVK
molecule,measurement,setting,value
AVPYPQ [peptide identified in the research of Pepe et al. (2016)],antioxidant activity,[1],showed antioxidant activity
QFTPR [peptide from previous studies on rice wine],IC50,α-glucosidase [2]; [12],9.18 mM
LRYL [walnut-derived peptide],Glucose consumption in HepG2 cells compared to the model group,HepG2 cells [3],increased glucose consumption
SSLFR [peptide from previous studies on rice wine],IC50,α-glucosidase [2]; [12],7.73 mM
"WLRL [WLRL peptide from soybean protein, positive control]",inhibitory effect toward α-glucosidase,α-glucosidase [2]; peptide from soybean protein,good inhibitory effect toward α-glucosidase
LVRL [walnut-derived peptide],Glucose consumption in HepG2 cells compared to the model group,HepG2 cells [3],increased glucose consumption
OO [Peptide H2O2],Cell viability rate,HepG2 cells [4],"56.38 (50.33, 68.00) %"
EAMAPK [peptide identified in the research of Pepe et al. (2016)],antioxidant activity,[1],showed antioxidant activity
VLLALVLLR [walnut-derived peptide],Glucose consumption in HepG2 cells compared to the model group,HepG2 cells [3],increased glucose consumption
AGGFR [peptide from malt],IC50,α-glucosidase [2]; [13],8.66 ± 0.33 mM
YPLPR [YPLPR],Cytotoxicity (MTT),HepG2 cells [5]; [14],no cytotoxicity
same,IC50,α-glucosidase [6],5.31 mM
AFEPLR [AFEPLR],Cytotoxicity (MTT),HepG2 cells [5]; [14],no cytotoxicity
same,IC50,α-glucosidase [6],8.69 mM
QEPVLGPVRGPFP [peptide extracted from goat milk casein hydrolysate],Insulin resistance in HepG2 cells exposed to high glucose,HepG2 cells [3],improvement in insulin resistance
O=C1O[C@H]([C@@H](O)CO)C(O)=C1O [VC],Relative intracellular ROS content,HepG2 cells [7],"92.03 (90.83, 98.11) %"
FTYPR [peptide previously screened from rice wine peptides by molecular simulation],IC50,[8],2.64 mM
same,IC50,[9],6.09 mM
same,IC50,α-glucosidase [2]; [12],3.57 mM
CN(CCOc1ccc(CC2SC(=O)NC2=O)cc1)c1ccccn1 (stereo not drawn) [rosiglitazone],Glucose consumption,HepG2 cells [10],"9.09 (8.29, 9.23) mmol/L"
LGVGG [peptide from Spanish dry-cured ham],α-glucosidase activity inhibition,α-glucosidase [2],effectively inhibited α-glucosidase activity
LDLQR [peptide from malt],IC50,α-glucosidase [2]; [13],8.59 ± 0.25 mM
AEEEYPDL [peptide from Spanish dry-cured ham],α-glucosidase activity inhibition,α-glucosidase [2],effectively inhibited α-glucosidase activity
SDIPNPIGSE [peptide extracted from goat milk casein hydrolysate],Insulin resistance in HepG2 cells exposed to high glucose,HepG2 cells [3],improvement in insulin resistance
LDNFR [peptide from malt],IC50,α-glucosidase [2]; [13],9.21 ± 0.22 mM
NC(=O)C[C@H](N)C(=O)N[C@@H](CC(=O)O)C(=O)N1CCC[C@H]1C(=O)N[C@@H](Cc1ccccc1)C(=O)O [NDPF] (H-NDPF-OH),Cytotoxicity (MTT),HepG2 cells [5]; [14],no cytotoxicity
same,IC50,α-glucosidase [6],6.24 mM
NPWDQVKR [peptide extracted from goat milk casein hydrolysate],Insulin resistance in HepG2 cells exposed to high glucose,HepG2 cells [3],improvement in insulin resistance
insulin: used to establish the insulin resistance model,Cellular glucose consumption compared with the group without insulin,HepG2 cells [11],significantly reduced
same,Cytotoxicity (MTT),HepG2 cells [5]; insulin 25.0 µmol/L,not cytotoxic
